Tests used:
Assay in all cases: In vitro antibacterial evaluation: minimum inhibitory concentration (MIC), broth dilution method
Assay type in all cases: cell-based
Enterococcus sp. = conditions: 18 hours at 35° C.
Procedure, shortened: (§1)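 NCCLS M7-A2 broth dilution with Mueller-Hinton II, testing 64-0.06 μg/mL antibiotic against 5×10^5 CFU/mL inocula. Test strains include recent methicillin-, penicillin- or vancomycin-resistant clinical isolates. MIC is the lowest concentration preventing growth.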

Escherichia coli = Escherichia coli (GC 4560); 18 hours at 35° C.
Procedure, shortened: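 First, organisms are seeded at 5×10^5 CFU/mL into Muller-Hinton II […]. Next, antibiotic is applied across 64-0.06 μg/mL by broth dilution (NCCLS M7-A2). Finally, the lowest inhibitory concentration is recorded as MIC.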

Staphylococcus sp. = test system: Staphylococcus sp.
Procedure, shortened: as §1

Streptococcus sp. = conditions: 18 hours at 35° C.
Procedure, shortened: as §1

[1] = broth dilution, inoculum 5×10^5 CFU/mL

CC(c1ccccc1)C1NC(=O)CNC(=O)C(CO)NC(=O)C(C(O)C2CN(Cc3ccc(C(F)(F)F)cc3)C(=N)N2C2OC(CO)C(O)C(O)C2O)NC(=O)C(C(O)C2CNC(=N)N2)NC(=O)C(Cc2ccc(OC3OC(CO)C(OC4OC5COC6(OC5C(O)C4O)C4CC5CC(C4)CC6C5)C(O)C3O)cc2)NC1=O (centres unmarked) [Example 226]
0.5 µg/mL: MIC Streptococcus pneumoniae (GC 1894) (Streptococcus sp.; Streptococcus pneumoniae (GC 1894)) | MIC Streptococcus pneumoniae (GC 1894) (Streptococcus sp.; [1])
4 µg/mL: MIC Escherichia coli (GC 4560) (Escherichia coli) | MIC Streptococcus agalactiae (GC 4564) (Streptococcus sp.; Streptococcus agalactiae (GC 4564)) | MIC Streptococcus pneumoniae (ATCC 6301) (Streptococcus sp.; Streptococcus pneumoniae (ATCC 6301)) | MIC Streptococcus pneumoniae (GC 4565) (Streptococcus sp.; Streptococcus pneumoniae (GC 4565)) | MIC Streptococcus agalactiae (GC 4564) (Streptococcus sp.; [1]) | MIC Streptococcus pneumoniae (ATCC 6301) (Streptococcus sp.; [1]) | MIC Streptococcus pneumoniae (GC 4565) (Streptococcus sp.; [1])
8 µg/mL: MIC Enterococcus avium (GC 4558) (Enterococcus sp.; Enterococcus avium (GC 4558)) | MIC Enterococcus avium (GC 4558) (Enterococcus sp.; [1]) | MIC Staphylococcus aureus (GC 4541) (Staphylococcus sp.; strain GC 4541) | MIC Staphylococcus aureus-SMITH (GC 4543) (Staphylococcus sp.; strain GC 4543) | MIC Staphylococcus haemolyticus (GC 4546) (Staphylococcus sp.; strain GC 4546) | MIC Coagulase Negative Staphylococcus (GC 4547) (Staphylococcus sp.; strain GC 4547) | MIC Coagulase Negative Staphylococcus (GC 4548) (Staphylococcus sp.; strain GC 4548) | MIC Coagulase Negative Staphylococcus (GC 4551) (Staphylococcus sp.; strain GC 4551)
32 µg/mL: MIC Enterococcus faecalis (ATCC 29212) (Enterococcus sp.; Enterococcus faecalis (ATCC 29212)) | MIC Enterococcus faecalis (GC 2691) (Enterococcus sp.; Enterococcus faecalis (GC 2691)) | MIC Enterococcus faecalis (GC 3059) (Enterococcus sp.; Enterococcus faecalis (GC 3059)) | MIC Enterococcus faecalis (GC 4552) (Enterococcus sp.; Enterococcus faecalis (GC 4552)) | MIC Enterococcus faecalis (GC 4554) (Enterococcus sp.; Enterococcus faecalis (GC 4554)) | MIC Enterococcus faecalis (GC 6189) (Enterococcus sp.; Enterococcus faecalis (GC 6189)) | MIC Enterococcus faecium (GC 4556) (Enterococcus sp.; Enterococcus faecium (GC 4556)) | MIC Enterococcus faecalis (ATCC 29212) (Enterococcus sp.; [1]) | MIC Enterococcus faecalis (GC 2691) (Enterococcus sp.; [1]) | MIC Enterococcus faecalis (GC 3059) (Enterococcus sp.; [1]) | MIC Enterococcus faecalis (GC 4552) (Enterococcus sp.; [1]) | MIC Enterococcus faecalis (GC 4554) (Enterococcus sp.; [1]) | MIC Enterococcus faecalis (GC 6189) (Enterococcus sp.; [1]) | MIC Enterococcus faecium (GC 4556) (Enterococcus sp.; [1])
16 µg/mL: MIC Enterococcus faecalis (GC 2242) (Enterococcus sp.; Enterococcus faecalis (GC 2242)) | MIC Enterococcus faecalis (GC 4553) (Enterococcus sp.; Enterococcus faecalis (GC 4553)) | MIC Enterococcus faecium (GC 2243) (Enterococcus sp.; Enterococcus faecium (GC 2243)) | MIC Enterococcus faecalis (GC 2242) (Enterococcus sp.; [1]) | MIC Enterococcus faecalis (GC 4553) (Enterococcus sp.; [1]) | MIC Enterococcus faecium (GC 2243) (Enterococcus sp.; [1]) | MIC Staphylococcus aureus (ATCC 29213) (Staphylococcus sp.; strain ATCC 29213) | MIC Staphylococcus aureus (GC 1131) (Staphylococcus sp.; strain GC 1131) | MIC Staphylococcus aureus (GC 3051) (Staphylococcus sp.; strain GC 3051) | MIC Staphylococcus aureus (GC 3053) (Staphylococcus sp.; strain GC 3053) | MIC Staphylococcus aureus (GC 4542) (Staphylococcus sp.; strain GC 4542) | MIC Staphylococcus aureus (GC 4544) (Staphylococcus sp.; strain GC 4544) | MIC Staphylococcus aureus (GC 4545) (Staphylococcus sp.; strain GC 4545) | MIC Coagulase Negative Staphylococcus (GC 4549) (Staphylococcus sp.; strain GC 4549)
2 µg/mL: MIC Enterococcus faecium (GC 4557) (Enterococcus sp.; Enterococcus faecium (GC 4557)) | MIC Enterococcus faecium (GC 4557) (Enterococcus sp.; [1]) | MIC Coagulase Negative Staphylococcus (GC 6257) (Staphylococcus sp.; strain GC 6257) | MIC Streptococcus pyogenes (GC 4563) (Streptococcus sp.; Streptococcus pyogenes (GC 4563)) | MIC Streptococcus pyogenes (GC 4563) (Streptococcus sp.; [1])

— US8247211B2, “Glycopeptide antibiotics” (American Cyanamid Company, priority 2001, dated 2012)
